Experimental data taken from patent US9920061B2, “Imidazo[1,5-A]pyrimidinyl carboxamide compounds and their use in the treatment of medical disorders” (Lysosomal Therapeutics Inc., priority 2016, dated 2018).
In brackets after ≈: the same amount, converted by molar mass. Where two headings read alike, the source gives them in different places.

How the values were obtained:
[1] = target: T1, glucocerebrosidase (Gcase) (Homo sapiens, UniProt P04062); assay: Glucocerebrosidase (Gcase) activation assay, 4-methylumbelliferyl-beta-D-glucopyranoside substrate, with saposin C; assay type: biochemical
T1 sequence (P04062 40-536): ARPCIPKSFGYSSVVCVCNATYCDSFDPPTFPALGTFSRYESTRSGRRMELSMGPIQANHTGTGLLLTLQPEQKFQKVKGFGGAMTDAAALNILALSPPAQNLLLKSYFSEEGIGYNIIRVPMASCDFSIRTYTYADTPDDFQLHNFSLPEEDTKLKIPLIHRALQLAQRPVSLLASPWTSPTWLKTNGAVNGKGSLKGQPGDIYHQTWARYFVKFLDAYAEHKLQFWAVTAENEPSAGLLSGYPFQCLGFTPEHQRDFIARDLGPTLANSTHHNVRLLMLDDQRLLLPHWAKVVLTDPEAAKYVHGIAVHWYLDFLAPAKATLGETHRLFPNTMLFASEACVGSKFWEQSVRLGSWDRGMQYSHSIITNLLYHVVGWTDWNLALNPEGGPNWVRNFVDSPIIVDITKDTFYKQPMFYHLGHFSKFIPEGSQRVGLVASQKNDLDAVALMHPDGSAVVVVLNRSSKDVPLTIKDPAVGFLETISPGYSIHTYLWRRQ
Protocol: The ability of exemplary compounds to activate glucocerebrosidase (Gcase) was measured.
A 484 μL aliquot of a 1.0 mg/mL solution of phosphatidylserine (PS) (Sigma P7769) in chloroform was evaporated under a stream of nitrogen for 1 hour. The lipid film was dissolved over 4 minutes of vigorous vortexing in 40 mL of 176 mM K2HPO4/50 mM citric acid (pH 4.7) containing 7.5 μL of triton X-100, resulting in a mixed micellar preparation with a composition of 0.32 mM triton and 0.37 mol % PS. 4-Methylumbelliferyl-beta-D-glucopyranoside (ACROS-337025000) was dissolved in the micellar solution to a final concentration of 2 mM for use as the reaction substrate.
Test compounds were diluted to the desired concentrations with dimethylsulfoxide (DMSO) from 10 mM stocks, and 0.41 μL of the DMSO compound mixture was added to 100 μL of micellar solution containing 10 nM GCase and 100 nM saposin C (Enzo ALX-201-262-C050). Pre-incubation was allowed to occur for 30 minutes at room temperature, after which the reaction was initiated by combining 25 μL of substrate solution with 25 μL of compound/GCase/saposin mixture. The reaction proceeded for 15 minutes at room temperature and was stopped by adding 150 μL of 1M glycine, pH 12.5. The endpoint of the reaction was monitored by measuring fluorescence intensity (excitation: 365 nm; emission: 440 nm) on a SpectraMax i3 instrument (Molecular Devices). Test compounds were screened at 1.0 and 0.1 μM final concentration, and subsequent 8-point dose response curves were obtained using 3-fold dilutions from a maximum final concentration of […].

[2] = Compound solubility in water; assay type: physicochemical
[3] = 0.1 μM test compound, read-out: Percent Gcase Activation 0.1 μM Test Compound
[4] = 1 μM test compound, read-out: Percent Gcase Activation 1 μM Test Compound
[5] = test compound at 0.1 μM, read-out: Percent Gcase Activation, 0.1 μM Test Compound
[6] = test compound at 1.0 μM, read-out: Percent Gcase Activation, 1 μM Test Compound

Row | SMILES | activation at 0.1 µM [1, 3] [%] | activation at 1 µM [1, 4] [%] | solubility [2] [µg/mL] | activation at 0.1 µM [1, 5] [%] | activation at 1 µM [1, 6] [%] | solubility ([2]; in water) [µg/mL]
1 | C#Cc1ccc(NC(=O)c2ncn3c(C4CCCC4)cc(C)nc23)cc1 [III-1] | 10 to 20 | 30 to 60 | 0.2 (≈ 0.581 µM) |  |  | 
2 | C#Cc1cccc(C2(NC(=O)c3ncn4c(C)cc(C)nc34)CC2)c1 [III-2] | < 10 | 30 to 60 | 19.7 (≈ 59.6 µM) |  |  | 
3 | C#Cc1cccc(C(NC(=O)c2ncn3c(C)cc(C)nc23)C(F)(F)F)c1 (centres unmarked) [III-3] | > 20 | > 60 | 2.2 (≈ 5.91 µM) |  |  | 
4 | C#Cc1cccc([C@@H](NC(=O)c2ncn3c(C)cc(C)nc23)C(F)(F)F)c1 [III-4] | > 20 | > 60 | 6.1 (≈ 16.4 µM) |  |  | 
5 | C#Cc1cccc([C@H](NC(=O)c2ncn3c(C)cc(C)nc23)C(F)(F)F)c1 [III-5] | > 20 | > 60 | 5.9 (≈ 15.8 µM) |  |  | 
6 | Cc1cc(C)n2cnc(C(=O)N[C@@H](C)C3CC3)c2n1 [III-6] | < 10 | < 30 | 24.4 (≈ 94.5 µM) |  |  | 
7 | Cc1cc(C)n2cnc(C(=O)NC(C)(C)C3CC3)c2n1 [III-8] | < 10 | < 30 | 25.2 (≈ 92.5 µM) |  |  | 
8 | Cc1cc(C)n2cnc(C(=O)NC(C)C3CCCCC3)c2n1 (centres unmarked) [III-9] | < 10 | > 60 | 14.3 (≈ 47.6 µM) |  |  | 
9 | Cc1cc(C)n2cnc(C(=O)NC(CC(C)C)C3CC3)c2n1 (centres unmarked) [III-11] | 10 to 20 | > 60 | 32.6 (≈ 109 µM) |  |  | 
10 | Cc1cc(-c2ccc(F)cc2)nc2c(C(=O)N[C@@H](C)C3CC3)ncn12 [III-12] | 10 to 20 | > 60 | 9.3 (≈ 27.5 µM) |  |  | 
11 | Cc1cc(-c2ccc(F)cc2)n2cnc(C(=O)N[C@@H](C)C3CC3)c2n1 [III-13] | < 10 | < 30 | 25 (≈ 73.9 µM) |  |  | 
12 | Cc1cc(C)n2cnc(C(=O)NC(C3CC3)C(F)(F)F)c2n1 (centres unmarked) [III-14] | < 10 | 30 to 60 | 37.8 (≈ 121 µM) |  |  | 
13 | Cc1cc(C)n2cnc(C(=O)NC(C3CCCCC3)C(F)(F)F)c2n1 (centres unmarked) [III-15] | > 20 | > 60 | 4 (≈ 11.3 µM) |  |  | 
14 | Cc1cc(C)n2cnc(C(=O)NC(c3ccc(F)cc3)C(F)(F)F)c2n1 (centres unmarked) [III-16] | 10 to 20 | > 60 | 24.3 (≈ 66.3 µM) |  |  | 
15 | CNc1cc(C)n2cnc(C(=O)NC(c3ccc(F)cc3)C(F)(F)F)c2n1 (centres unmarked) [III-17] | > 20 | > 60 | 0.9 (≈ 2.36 µM) |  |  | 
16 | CNc1cc(C)nc2c(C(=O)NC(c3ccc(F)cc3)C(F)(F)F)ncn12 (centres unmarked) [III-18] | > 20 | > 60 | 1.7 (≈ 4.46 µM) |  |  | 
17 | COc1cc(C)n2cnc(C(=O)NC(c3ccc(F)cc3)C(F)(F)F)c2n1 (centres unmarked) [III-19] | 10 to 20 | > 60 | 8.7 (≈ 22.8 µM) |  |  | 
18 | COc1cc(C)nc2c(C(=O)NC(c3ccc(F)cc3)C(F)(F)F)ncn12 (centres unmarked) [III-20] | < 10 | > 60 | 6.9 (≈ 18 µM) |  |  | 
19 | CCOc1cc(C)n2cnc(C(=O)NC(c3ccc(F)cc3)C(F)(F)F)c2n1 (centres unmarked) [III-21] | > 20 | > 60 | 1.1 (≈ 2.78 µM) |  |  | 
20 | COCc1cc(C)n2cnc(C(=O)NC(c3ccc(F)cc3)C(F)(F)F)c2n1 (centres unmarked) [III-22] | < 10 | > 60 | 24.7 (≈ 62.3 µM) |  |  | 
21 | COCc1cc(C)nc2c(C(=O)NC(c3ccc(F)cc3)C(F)(F)F)ncn12 (centres unmarked) [III-23] | > 20 | > 60 | 10.9 (≈ 27.5 µM) |  |  | 
22 | Cc1cc(Cl)nc2c(C(=O)NC(c3ccc(F)cc3)C(F)(F)F)ncn12 (centres unmarked) [III-24] | 10 to 20 | > 60 | 10.4 (≈ 26.9 µM) |  |  | 
23 | Cc1cc(C)n2cnc(C(=O)NC(C)(C)C3CC4(CCC4)C3)c2n1 [III-25] | > 20 | > 60 | 1.5 (≈ 4.59 µM) |  |  | 
24 | Cc1cc(-c2ccc(F)cc2)nc2c(C(=O)NC(C)(C)C3CC3)ncn12 [III-26] | > 20 | > 60 | 1.6 (≈ 4.54 µM) |  |  | 
25 | Cc1cc(-c2ccccn2)nc2c(C(=O)NC(CC(C)C)C3CC3)ncn12 (centres unmarked) [III-27] | > 20 | > 60 | 4.6 (≈ 12.7 µM) |  |  | 

Row | SMILES | activation at 0.1 µM [1, 3] [%] | activation at 1 µM [1, 4] [%] | solubility [2] [µg/mL] | activation at 0.1 µM [1, 5] [%] | activation at 1 µM [1, 6] [%] | solubility ([2]; in water) [µg/mL]
26 | Cc1cc(-c2ccncc2)nc2c(C(=O)NC(CC(C)C)C3CC3)ncn12 (centres unmarked) [III-28] | < 10 | > 60 | 19.7 (≈ 54.2 µM) |  |  | 
27 | Cc1cc(-c2ccccn2)nc2c(C(=O)N[C@@H](C)c3ccccc3F)ncn12 [III-29] | 10 to 20 | > 60 | 0.9 (≈ 2.4 µM) |  |  | 
28 | COc1ccccc1[C@H](C)NC(=O)c1ncn2c(C)cc(-c3ccc(F)cc3)nc12 [III-30] | 10 to 20 | > 60 | 1.3 (≈ 3.21 µM) |  |  | 
29 | CCC(NC(=O)c1ncn2c(C)cc(-c3ccccn3)nc12)c1ccc(F)cc1 (centres unmarked) [III-31] | 10 to 20 | > 60 | 2.7 (≈ 6.93 µM) |  |  | 
30 | Cc1cn2cnc(C(=O)N[C@@H](C)C3CC3)c2nc1-c1ccc(F)cc1 [III-32] | < 10 | < 30 |  |  |  | 
31 | CCc1cc(-c2ccc(F)cc2)nc2c(C(=O)N[C@@H](C)C3CC3)ncn12 [III-33] | > 20 | > 60 | 10.5 (≈ 29.8 µM) |  |  | 
32 | COc1cc(-c2ccc(F)cc2)nc2c(C(=O)N[C@@H](C)C3CC3)ncn12 [III-34] | < 10 | < 30 | 0.2 (≈ 0.564 µM) |  |  | 
33 | Cc1c(-c2ccc(F)cc2)cnc2c(C(=O)N[C@@H](C)C3CC3)ncn12 [III-38] | < 10 | < 30 |  |  |  | 
34 | Cc1nc2c(C(=O)N[C@@H](C)C3CC3)ncn2cc1-c1ccc(F)cc1 [III-39] | < 10 | < 30 |  |  |  | 
35 | Cc1nc2c(C(=O)N[C@@H](C)C3CC3)ncn2c(C)c1-c1ccc(F)cc1 [III-40] | < 10 | < 30 |  |  |  | 
36 | Cc1cc(Oc2ccc(F)cc2)nc2c(C(=O)NC(C)(C)C3CC3)ncn12 [III-77] | < 10 | 30 to 60 |  |  |  | 
37 | Cc1cc(-c2ccc(C#N)c(O)c2)nc2c(C(=O)NC(C3CC3)C(F)(F)F)ncn12 (centres unmarked) [III-159] | < 10 | < 30 |  |  |  | 
38 | Cc1cc(-c2cccnc2)nc2c(C(=O)NC(C)C(C)C3CC3)ncn12 (centres unmarked) [III-189] | < 10 | 30 to 60 |  |  |  | 
39 | Cc1cc(-c2cccc(OC(F)(F)F)n2)nc2c(C(=O)N[C@H](C)C3CC3)ncn12 [IV-12] |  |  |  | < 10 | 30 to 60 | 
40 | Cc1cc(-c2ccc(C#N)o2)nc2c(C(=O)N[C@H](C3CC3)C(F)(F)F)ncn12 [IV-34] |  |  |  | > 20 | > 60 | 
41 | Cc1cc(-c2ccc(C#N)o2)nc2c(C(=O)N[C@@H](C3CC3)C(F)(F)F)ncn12 [IV-35] |  |  |  | > 20 | > 60 | 
42 | Cc1cc(-c2nccs2)nc2c(C(=O)NC(C)(C)C)ncn12 [IV-54] |  |  |  | < 10 | < 30 | 
43 | COc1cccc(-c2cc(C)n3cnc(C(=O)NC(C4CC4)C(F)(F)F)c3n2)n1 (centres unmarked) [IV-91] |  |  |  |  |  | 1.4 (≈ 3.45 µM)
44 | Cc1cc(C#N)c(-c2cc(C)n3cnc(C(=O)N[C@H](C4CC4)C(F)(F)F)c3n2)o1 [IV-93] |  |  |  | > 20 | > 60 | 
45 | Cc1cc(C#N)c(-c2cc(C)n3cnc(C(=O)N[C@@H](C4CC4)C(F)(F)F)c3n2)o1 [IV-94] |  |  |  | > 20 | > 60 | 
46 | Cc1nscc1-c1cc(C)n2cnc(C(=O)N[C@H](C3CC3)C(F)(F)F)c2n1 [IV-96] |  |  |  | 10 to 20 | > 60 | 
47 | Cc1nscc1-c1cc(C)n2cnc(C(=O)N[C@@H](C3CC3)C(F)(F)F)c2n1 [IV-97] |  |  |  | 10 to 20 | > 60 | 
48 | Cc1sncc1-c1cc(C)n2cnc(C(=O)N[C@H](C3CC3)C(F)(F)F)c2n1 [IV-98] |  |  |  | > 20 | > 60 | 
49 | Cc1sncc1-c1cc(C)n2cnc(C(=O)N[C@@H](C3CC3)C(F)(F)F)c2n1 [IV-99] |  |  |  | > 20 | > 60 | 
